Assays:
rats [1] = assay: Rat learned helplessness test (escape failures); format: in vivo; settings: for No. of escape failures (mean ± S.E.): oral once daily for 10 days, ECS group, 40 avoidance tasks, N=10
Text: (§1) Particularly the forced swimming test has been used most widely in the evaluation of antidepressant drugs in animals. Reportedly the immobility time-shortening activity of an antidepressant drug as assayed by this test is highly correlated with the clinical efficacy of the drug in man (F. Borsini and A. Meli, 1988).
The rat was orally administered with the drug once daily for 10 consecutive days. On days 8-10 of administration, the rat was placed in a shuttle box in which it received 100 unescapable electroconvulsive shocks (ECS) daily. The day after the last ECS session, the active avoidance task was given 40 times and the number of failures to escape was recorded. Compound No. 2 was used as the test drug. As a reference drug, desipramine was used.

rats [2] = assay: Rat forced swimming test (immobility time); format: in vivo, rat (male Wistar); settings: for Immobility Time (mean ± S.E.): N=10; for Effect on the immobility time in the forced swimming test (in words): Dunnett's test vs control
Description: as §1
Five-week old male Wistar rats were used. A cylindrical vessel measuring 18 cm in diameter and 40 cm deep was filled with 25° C. of water to the level of 17 cm from the bottom, and the rat was forced to swim in the water for 15 minutes (Session I). After 24 hours, the rat was put again in the vessel for 5 minutes and the duration of time the rat remained motionless without swimming was determined (Session II). The drug was orally administered twice, viz. at completion of Session I and 1 hr before the start of Session II. The drug was suspended in 0.5% methylcellulose (MC) solution for the administration. The control group was orally given the same volume of 0.5% MC solution. Compound No. 2 was used as the test drug. As reference drugs, desipramine, which is a representative antidepressant, and aniracetam and idebenone, both of which are enhancers of cerebral circulation and metabolism, were used. The statistical significance of between groups differences was analyzed by Dunnett's test.

[3] = Acute toxicity testing, oral, rats; parameters: species or system rat (male SD-strain); settings: rat, in vivo, male SD rats, two-week observation, probit method
Description: (2) Groups of five male SD-strain rats weighing 280-360 g were used. The animals were fasted for 16-18 hours (from the previous day) and then orally given the test compound. The LD50 values were calculated by the probit method based on the mortality observed within the succeeding two-week period.

[4] = Acute toxicity testing, oral, mice; parameters: species or system mouse (male ddy-strain); settings: mouse, in vivo, male ddy mice, 2 weeks observation, probit method
Description: (1) Groups of five male ddy-strain mice aged 6-7 weeks were used. The animals were fasted for 16-18 hours (from the previous day) and then orally given the test compound. The LD50 values were calculated by the probit method based on the mortality observed within the succeeding period of 2 weeks.

[5] = 1 mg/kg, oral twice, *p < 0.01 vs control
[6] = 3 mg/kg, oral twice, *p < 0.01 vs control
[7] = 10 mg/kg, oral twice, *p < 0.01 vs control
[8] = 30 mg/kg, oral twice, *p < 0.01 vs control
[9] = 100 mg/kg, oral twice, *p < 0.01 vs control

## CNCCCN1c2ccccc2CCc2ccccc21 [desipramine]
Rats [1]; 1 mg/kg
  No. of escape failures (mean ± S.E.): 32.10 ± 2.66
Rats [1]; 3 mg/kg
  No. of escape failures (mean ± S.E.): 19.00 ± 5.65
Rats [1]; 10 mg/kg, oral
  Effect on failure to escape in the learned helplessness test (in words): significant inhibitory effects on this failure to escape at 10 mg/kg
Rats [1]; 10 mg/kg, *p < 0.01
  No. of escape failures (mean ± S.E.): 0.60 ± 0.27
Rats [2]; [5]
  Immobility Time (mean ± S.E.): 134.2 ± 20.8 s
Rats [2]; [6]
  Immobility Time (mean ± S.E.): 83.2 ± 16.1 s
Rats [2]; [7]
  Immobility Time (mean ± S.E.): 54.7 ± 15.8 s
Rats [2]; [8]
  Immobility Time (mean ± S.E.): 34.8 ± 12.2 s
Rats [2]; 50 mg/kg, oral twice, *p < 0.01 vs control
  Immobility Time (mean ± S.E.): 41.8 ± 9.8 s
Rats [2]; oral twice
  Effect on the immobility time in the forced swimming test (in words): shortened the immobility time significantly and dose dependently at 3 mg/kg and higher doses

## COc1ccc(C(=O)N2CCCC2=O)cc1 [aniracetam]
Rats [2]; [7]
  Immobility Time (mean ± S.E.): 168.9 ± 18.0 s
Rats [2]; [8]
  Immobility Time (mean ± S.E.): 162.6 ± 14.5 s
Rats [2]; [9]
  Immobility Time (mean ± S.E.): 175.6 ± 13.8 s
Rats [2]; oral twice
  Effect on the immobility time in the forced swimming test (in words): did not influence the immobility time

## O=C1CC[C@H](C(=O)N2CCCCC2)N1 [Compound No. 2, D-(+)-1-(2-Pyrrolidone-5-carbonyl)piperidine]
Rats [1]; 1 mg/kg
  No. of escape failures (mean ± S.E.): 20.20 ± 4.89
Rats [1]; 3 mg/kg
  No. of escape failures (mean ± S.E.): 13.60 ± 4.15
Rats [1]; 10 mg/kg, *p < 0.01
  No. of escape failures (mean ± S.E.): 0.90 ± 0.69
[3]
  LD50 at 336 h: ≥ 5000 mg/kg
Rats [2]; 0.3 mg/kg, oral twice (after Session I and 1 hr before Session II)
  Immobility Time (mean ± S.E.): 153.0 ± 17.2 s
Rats [2]; [5]
  Immobility Time (mean ± S.E.): 119.4 ± 11.0 s
Rats [2]; [6]
  Immobility Time (mean ± S.E.): 82.2 ± 18.1 s
Rats [2]; [7]
  Immobility Time (mean ± S.E.): 93.7 ± 13.4 s
Rats [2]; [8]
  Immobility Time (mean ± S.E.): 61.3 ± 8.5 s
Rats [2]; [9]
  Immobility Time (mean ± S.E.): 53.8 ± 12.6 s
[4]
  LD50 at 336 h: 4160 mg/kg

## COC1=C(OC)C(=O)C(CCCCCCCCCCO)=C(C)C1=O [idebenone]
Rats [2]; [8]
  Immobility Time (mean ± S.E.): 178.2 ± 17.6 s
Rats [2]; [9]
  Immobility Time (mean ± S.E.): 154.4 ± 17.4 s
Rats [2]; 300 mg/kg, oral twice
  Immobility Time (mean ± S.E.): 180.9 ± 13.9 s
Rats [2]; oral twice
  Effect on the immobility time in the forced swimming test (in words): did not influence the immobility time

— patent US5652249A, “Method of treating depression” (Nippon Shinyaku Co., Inc., priority 1993, dated 1997)
